Laboratory results: US8071625B2, “Certain chemical entities, compositions, and methods” (Cytokinetics, Inc., priority 2006, dated 2011)

Target: T1, crosslinked smooth muscle actomyosin (chicken gizzard smooth muscle myosin subfragment-1 crosslinked to cardiac or skeletal actin) (Gallus gallus, UniProt P10587)
T1 construct: chicken gizzard smooth muscle myosin subfragment-1; from tissue; host or cells: chicken gizzard
Assay: Lead optimization pyruvate kinase/horseradish peroxidase/pyruvate oxidase-coupled ATPase assay (compound dose response)
Type: biochemical
Conditions: read-out: IC50 Arithmetic Mean
Summary of the method: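 IC50 is the midpoint of a 4-parameter dose–response fit of Amplex Red fluorescence (480/615 nm). Buffer was 12 mM potassium PIPES pH 7.00 at 22 °C with 100 mM KCl, 2 mM MgCl2, 0.15 mM ATP and 2 mM phosphate, with PK/pyruvate oxidase/HRP coupling. Enzyme: smooth muscle myosin S1 crosslinked to cardiac or skeletal actin, dosed empirically by activity.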

| SMILES | IC50 |
| --- | --- |
| O=C(Nc1ccc(C(F)(F)F)cc1)OCC1(C(=O)NCc2ccccc2Cl)CCN(C(=O)CO)CC1 [N-[(2-chlorophenyl)methyl][1-(2-hydroxyacetyl)-4-({N-[4-(trifluoromethyl)phenyl]carbamoyloxy}methyl)(4-piperidyl)]carboxamide] | 456 nM |
| CCc1ccc(NC(=O)NCC2CCCN2C(=O)NCc2ccccc2Cl)cc1 (stereo not drawn) [N-[(2-chlorophenyl)methyl][2-({[(4-ethylphenyl)amino]carbonylamino}methyl)pyrrolidinyl]carboxamide] | 2620 nM |
| CC(O)c1ccc(NC(=O)OCC2(C(=O)NCc3ccccc3Cl)CCOCC2)cc1 (stereo not drawn) [N-[(2-chlorophenyl)methyl][4-({N-[4-(hydroxyethyl)phenyl]carbamoyloxy}methyl)(2H-3,4,5,6-tetrahydropyran-4-yl)]carboxamide] | 5230 nM |
| O=C(Nc1ccc(C(F)(F)F)cc1)OCC1(C(=O)NCc2ccccc2Cl)CCOCC1 [N-[(2-chlorophenyl)methyl][4-({N-[4-(trifluoromethyl)phenyl]carbamoyloxy}methyl)(2H-3,4,5,6-tetrahydropyran-4-yl)]carboxamide] | 1140 nM |
| O=C(Nc1ccc(C(F)(F)F)cc1)OCC1(C(=O)NCc2ccccc2Cl)CCNCC1 [N-[(2-chlorophenyl)methyl][4-({N-[4-(trifluoromethyl)phenyl]carbamoyloxy}methyl)(4-piperidyl)]carboxamide] | 5940 nM |
| Cc1ccc(NC(=O)OCC2(C(=O)NCc3ccccc3Cl)CCOCC2)cc1C(F)(F)F [N-[(2-chlorophenyl)methyl][4-({N-[4-methyl-3-(trifluoromethyl)phenyl]carbamoyloxy}methyl)(2H-3,4,5,6-tetrahydropyran-4-yl)]carboxamide] | 12100 nM |
| CCc1ccc(NC(=O)N(C)CC2(C(=O)NCc3ccccc3Cl)CCN(C(=O)CO)CC2)cc1 [N-[(2-chlorophenyl)methyl][4-({[(4-ethylphenyl)amino]-N-methylcarbonylamino}methyl)-1-(2-hydroxyacetyl)(4-piperidyl)]carboxamide] | 18700 nM |
| CCc1ccc(NC(=O)NCC2(C(=O)NCc3ccccc3Cl)CCNCC2)cc1 [N-[(2-chlorophenyl)methyl][4-({[(4-ethylphenyl)amino]carbonylamino}methyl)(4-piperidyl)]carboxamide] | 18200 nM |
| CCc1ccc(NC(=O)OC2CCCN(C(=O)NCc3ccccc3Cl)C2)cc1 (stereo not drawn) [N-[(2-chlorophenyl)methyl]{3-[N-(4-ethylphenyl)carbamoyloxy]piperidyl}carboxamide] | 2260 nM |
| CCc1ccc(CC(=O)NCC2(C(=O)NCc3ccccc3Cl)CC2)cc1 [N-[({N-[(2-chlorophenyl)methyl]carbamoyl}cyclopropyl)methyl]-2-(4-ethylphenyl)acetamide] | 18200 nM |
| CCc1ccc(NC(=O)NCC2(C(=O)NCc3ccccc3Cl)CC2)cc1 [N-[({N-[(2-chlorophenyl)methyl]carbamoyl}cyclopropyl)methyl][(4-ethylphenyl)amino]carboxamide] | 5230 nM |
| CCc1ccc(NC(=O)OCCN(C)C(=O)CCc2ccccc2C(F)(F)F)cc1 [N-{2-[N-(4-ethylphenyl)carbamoyloxy]ethyl}-N-methyl-3-[2-(trifluoromethyl)phenyl]propanamide] | 1210 nM |
| CCc1ccc(NC(=O)OCCNC(C)=O)cc1 [N-{2-[N-(4-ethylphenyl)carbamoyloxy]ethyl}acetamide] | 17400 nM |
| CCc1ccc(NC(=O)OCC[C@H](C)N(C)C(=O)NCc2ccccc2Cl)cc1 [N-{(1S)-3-[N-(4-ethylphenyl)carbamoyloxy]-1-methylpropyl}{[(2-chlorophenyl)methyl]amino}-N-methylcarboxamide] | 198 nM |
| NCC(=O)N1CCC(COC(=O)Nc2ccc(C(F)(F)F)cc2Cl)(C(=O)NCc2ccccc2Cl)CC1 [[1-(2-aminoacetyl)-4-({N-[2-chloro-4-(trifluoromethyl)phenyl]carbamoyloxy}methyl)(4-piperidyl)]-N-[(2-chlorophenyl)methyl]carboxamide] | 440 nM |
| N#Cc1ccccc1CNC(=O)C1(COC(=O)Nc2ccc(C(F)(F)F)cc2)CCN(C(=O)CN)CC1 [[1-(2-aminoacetyl)-4-({N-[4-(trifluoromethyl)phenyl]carbamoyloxy}methyl)(4-piperidyl)]-N-[(2-cyanophenyl)methyl]carboxamide] | 3240 nM |
| Cc1ccc(NC(=O)OCC2(C(=O)NCc3ccccc3Cl)CCN(C(=O)CN)CC2)cc1C(F)(F)F [[1-(2-aminoacetyl)-4-({N-[4-methyl-3-(trifluoromethyl)phenyl]carbamoyloxy}methyl)(4-piperidyl)]-N-[(2-chlorophenyl)methyl]carboxamide] | 1970 nM |
| N[C@@H](CO)C(=O)N1CCC(COC(=O)Nc2ccc(C(F)(F)F)cc2)(C(=O)NCc2ccccc2Cl)CC1 [[1-((2S)-2-amino-3-hydroxypropanoyl)-4-({N-[4-(trifluoromethyl)phenyl]carbamoyloxy}methyl)(4-piperidyl)]-N-[(2-chlorophenyl)methyl]carboxamide] | 138 nM |
| CCc1ccc(NC(=O)OCCN(CCCCN)C(=O)NCc2ccccc2Cl)cc1 [[2-(N-(4-aminobutyl){[(2-chlorophenyl)methyl]amino}carbonylamino)ethoxy]-N-(4-ethylphenyl)carboxamide] | 346 nM |
| CCc1ccc(NC(=O)OCCN(CCO)C(=O)NCc2ccccc2Cl)cc1 [[2-({[(2-chlorophenyl)methyl]amino}-N-(2-hydroxyethyl)carbonylamino)ethoxy]-N-(4-ethylphenyl)carboxamide] | 210 nM |
| CCc1ccc(NC(=O)OC(C)CN(C)C(=O)NCc2ccccc2Cl)cc1 (stereo not drawn) [[2-({[(2-chlorophenyl)methyl]amino}-N-methylcarbonylamino)-isopropoxy]-N-(4-ethylphenyl)carboxamide] | 8520 nM |
| NCC(=O)N1CCC(COC(=O)Nc2ccc(C(F)(F)F)cc2)(C(=O)NCc2cccc(Cl)c2Cl)CC1 [[(1-(2-aminoacetyl)-4-{N-[(2,3-dichlorophenyl)methyl]carbamoyl}(4-piperidyl))methoxy]-N-[4-(trifluoromethyl)phenyl]carboxamide] | 284 nM |
| CCc1ccc(NC(=O)OCC2(C(=O)NCc3ccc(Cl)cc3Cl)CCN(C(=O)CN)CC2)cc1 [[(1-(2-aminoacetyl)-4-{N-[(2,4-dichlorophenyl)methyl]carbamoyl}(4-piperidyl))methoxy]-N-(4-ethylphenyl)carboxamide] | 197 nM |
| CCc1ccc(NC(=O)OCC2(C(=O)NCc3ccccc3Br)CCN(C(=O)CN)CC2)cc1 [[(1-(2-aminoacetyl)-4-{N-[(2-bromophenyl)methyl]carbamoyl}(4-piperidyl))methoxy]-N-(4-ethylphenyl)carboxamide] | 146 nM |

The remaining lines, values ahead:

| IC50 | SMILES |
| --- | --- |
| 3920 nM | Cc1nc(-c2ccc(NC(=O)OCC3(C(=O)NCc4ccccc4Cl)CCOCC3)cc2)cs1 [N-[(2-chlorophenyl)methyl][4-({N-[4-(2-methyl(1,3-thiazol-4-yl))phenyl]carbamoyloxy}methyl)(2H-3,4,5,6-tetrahydropyran-4-yl)]carboxamide] |
| 498 nM | CC(C)c1ccc(NC(=O)OCC2(C(=O)NCc3ccccc3Cl)CCOCC2)cc1 [N-[(2-chlorophenyl)methyl][4-({N-[4-(methylethyl)phenyl]carbamoyloxy}methyl)(2H-3,4,5,6-tetrahydropyran-4-yl)]carboxamide] |
| 1880 nM | CCc1ccc(NC(=O)NCC2(C(=O)NCc3ccccc3Cl)CCN(C(=O)CO)CC2)cc1 [N-[(2-chlorophenyl)methyl][4-({[(4-ethylphenyl)amino]carbonylamino}methyl)-1-(2-hydroxyacetyl)(4-piperidyl)]carboxamide] |
| 361 nM | O=C(Nc1ccc2c(c1)CCC2)OCC1(C(=O)NCc2ccccc2Cl)CCOCC1 [N-[(2-chlorophenyl)methyl]{4-[(N-indan-5-ylcarbamoyloxy)methyl](2H-3,4,5,6-tetrahydropyran-4-yl)}carboxamide] |
| 15200 nM | O=C(Nc1ccccc1)OCC1(C(=O)NCc2ccccc2Cl)CCOCC1 [N-[(2-chlorophenyl)methyl]{4-[(N-phenylcarbamoyloxy)methyl](2H-3,4,5,6-tetrahydropyran-4-yl)}carboxamide] |
| 17500 nM | CCc1ccc(NC(=O)OCCN(C)C(=O)C(O)Cc2ccccc2C(F)(F)F)cc1 (stereo not drawn) [N-{2-[N-(4-ethylphenyl)carbamoyloxy]ethyl}-2-hydroxy-N-methyl-3-[2-(trifluoromethyl)phenyl]propanamide] |
| 148 nM | CCc1ccc(NC(=O)OC[C@H](C)N(C)C(=O)NCc2ccccc2Cl)cc1 [N-{(1S)-2-[N-(4-ethylphenyl)carbamoyloxy]-isopropyl}{[(2-chlorophenyl)methyl]amino}-N-methylcarboxamide] |
| 1630 nM | CCc1ccc(NC(=O)OC[C@H](C)NC(=O)NCc2ccccc2Cl)cc1 [N-{(1S)-2-[N-(4-ethylphenyl)carbamoyloxy]-isopropyl}{[(2-chlorophenyl)methyl]amino}carboxamide] |
| 285 nM | NCC(=O)N1CCC(COC(=O)Nc2ccc(C(F)(F)F)cc2)(C(=O)NCc2ccccc2Cl)CC1 [[1-(2-aminoacetyl)-4-({N-[4-(trifluoromethyl)phenyl]carbamoyloxy}methyl)(4-piperidyl)]-N-[(2-chlorophenyl)methyl]carboxamide] |
| 88 nM | CCc1ccc(NC(=O)OCC2(C(=O)NCc3cccc(Cl)c3Cl)CCN(C(=O)CN)CC2)cc1 [[(1-(2-aminoacetyl)-4-{N-[(2,3-dichlorophenyl)methyl]carbamoyl}(4-piperidyl))methoxy]-N-(4-ethylphenyl)carboxamide] |
| 164 nM | CCc1ccc(NC(=O)OCC2(C(=O)NCc3cccc(F)c3F)CCN(C(=O)CN)CC2)cc1 [[(1-(2-aminoacetyl)-4-{N-[(2,3-difluorophenyl)methyl]carbamoyl}(4-piperidyl))methoxy]-N-(4-ethylphenyl)carboxamide] |
| 576 nM | CCc1ccc(NC(=O)OCC2(C(=O)NCc3ccc(C)cc3C)CCN(C(=O)CN)CC2)cc1 [[(1-(2-aminoacetyl)-4-{N-[(2,4-dimethylphenyl)methyl]carbamoyl}(4-piperidyl))methoxy]-N-(4-ethylphenyl)carboxamide] |
